Data from ChEMBL document CHEMBL1201862, “PubChem BioAssay data set” (2004).
Each block holds one molecule with its values, some of them ahead of it. Calls of active or inactive are those of the source.

How the values were obtained:
[1] = target: T1, 1-phosphatidylinositol 4,5-bisphosphate phosphodiesterase gamma-1 (Homo sapiens, UniProt P19174); test: Counterscreen for inhibitors of phospholipase C isozymes (PLC-B3): Fluorescence-based biochemical high throughput dose response assay to identify inhibitors of phospholipase C isozymes (PLC-gamma1).
T1 sequence (P19174 whole entry): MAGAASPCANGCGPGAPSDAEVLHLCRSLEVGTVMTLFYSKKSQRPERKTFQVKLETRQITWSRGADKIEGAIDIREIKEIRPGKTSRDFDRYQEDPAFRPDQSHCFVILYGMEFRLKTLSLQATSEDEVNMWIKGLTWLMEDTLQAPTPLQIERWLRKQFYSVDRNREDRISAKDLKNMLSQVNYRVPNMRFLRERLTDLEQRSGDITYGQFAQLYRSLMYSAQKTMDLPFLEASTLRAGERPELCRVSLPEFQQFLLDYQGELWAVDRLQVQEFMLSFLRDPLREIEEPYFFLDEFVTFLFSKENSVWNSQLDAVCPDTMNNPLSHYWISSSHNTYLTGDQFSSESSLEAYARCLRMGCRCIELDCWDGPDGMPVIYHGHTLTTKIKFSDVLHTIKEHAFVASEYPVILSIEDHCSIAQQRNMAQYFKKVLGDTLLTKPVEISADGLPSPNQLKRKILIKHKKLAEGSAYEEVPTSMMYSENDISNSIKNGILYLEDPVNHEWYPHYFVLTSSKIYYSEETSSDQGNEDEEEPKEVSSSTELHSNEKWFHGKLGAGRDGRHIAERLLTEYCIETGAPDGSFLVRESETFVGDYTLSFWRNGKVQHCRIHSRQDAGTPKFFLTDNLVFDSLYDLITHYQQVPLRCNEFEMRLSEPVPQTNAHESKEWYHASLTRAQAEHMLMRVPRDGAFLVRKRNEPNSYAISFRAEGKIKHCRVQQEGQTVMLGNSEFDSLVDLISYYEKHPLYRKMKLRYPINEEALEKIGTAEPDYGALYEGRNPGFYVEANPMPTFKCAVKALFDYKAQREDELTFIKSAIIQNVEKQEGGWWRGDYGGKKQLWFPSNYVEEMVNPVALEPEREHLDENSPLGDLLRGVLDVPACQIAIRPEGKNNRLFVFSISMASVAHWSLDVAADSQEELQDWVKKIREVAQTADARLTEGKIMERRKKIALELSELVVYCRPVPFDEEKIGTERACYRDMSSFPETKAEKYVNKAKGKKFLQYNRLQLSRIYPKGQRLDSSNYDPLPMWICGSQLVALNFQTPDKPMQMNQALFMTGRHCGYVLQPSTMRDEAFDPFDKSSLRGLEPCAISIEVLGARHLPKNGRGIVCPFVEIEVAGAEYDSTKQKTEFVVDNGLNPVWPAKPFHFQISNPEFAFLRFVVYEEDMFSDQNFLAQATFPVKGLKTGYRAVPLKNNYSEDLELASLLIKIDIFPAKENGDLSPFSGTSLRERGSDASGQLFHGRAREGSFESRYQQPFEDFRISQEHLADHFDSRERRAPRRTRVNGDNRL

[2] = target: T2, Serine/threonine-protein phosphatase (Homo sapiens, UniProt Q9BPW0); test: Counterscreen for inhibitors of PP1: fluorescence-based biochemical high throughput dose response assay to identify inhibitors of Protein Phosphatase 5 (PP5). [Related pubchem assays: 2034 (Summary (PP5 inhibitors)), 1987 (PP5 inhibitors in singlate), 2235 (PP1 inhibitors in singlate)]
T2 sequence (Q9BPW0 whole entry): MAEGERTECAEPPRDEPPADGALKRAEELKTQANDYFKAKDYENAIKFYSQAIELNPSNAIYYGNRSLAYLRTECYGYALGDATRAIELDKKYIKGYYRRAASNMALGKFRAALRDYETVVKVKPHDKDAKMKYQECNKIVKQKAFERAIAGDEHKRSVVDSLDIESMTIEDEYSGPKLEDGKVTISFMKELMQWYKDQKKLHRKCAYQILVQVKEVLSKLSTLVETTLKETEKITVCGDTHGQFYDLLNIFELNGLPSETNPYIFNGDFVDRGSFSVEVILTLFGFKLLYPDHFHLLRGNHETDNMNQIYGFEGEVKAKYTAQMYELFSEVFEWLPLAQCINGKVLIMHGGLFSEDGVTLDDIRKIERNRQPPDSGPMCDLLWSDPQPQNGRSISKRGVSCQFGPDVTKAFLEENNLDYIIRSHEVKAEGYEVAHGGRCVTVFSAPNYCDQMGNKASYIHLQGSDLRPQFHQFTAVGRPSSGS

[3] = target: Platelet-derived growth factor receptor beta (Homo sapiens, UniProt P09619); type: functional;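 further: value comes from a kinome panel, with PDGFRB tested as one panel member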
Chain of Platelet-derived growth factor receptor beta (P09619 whole entry): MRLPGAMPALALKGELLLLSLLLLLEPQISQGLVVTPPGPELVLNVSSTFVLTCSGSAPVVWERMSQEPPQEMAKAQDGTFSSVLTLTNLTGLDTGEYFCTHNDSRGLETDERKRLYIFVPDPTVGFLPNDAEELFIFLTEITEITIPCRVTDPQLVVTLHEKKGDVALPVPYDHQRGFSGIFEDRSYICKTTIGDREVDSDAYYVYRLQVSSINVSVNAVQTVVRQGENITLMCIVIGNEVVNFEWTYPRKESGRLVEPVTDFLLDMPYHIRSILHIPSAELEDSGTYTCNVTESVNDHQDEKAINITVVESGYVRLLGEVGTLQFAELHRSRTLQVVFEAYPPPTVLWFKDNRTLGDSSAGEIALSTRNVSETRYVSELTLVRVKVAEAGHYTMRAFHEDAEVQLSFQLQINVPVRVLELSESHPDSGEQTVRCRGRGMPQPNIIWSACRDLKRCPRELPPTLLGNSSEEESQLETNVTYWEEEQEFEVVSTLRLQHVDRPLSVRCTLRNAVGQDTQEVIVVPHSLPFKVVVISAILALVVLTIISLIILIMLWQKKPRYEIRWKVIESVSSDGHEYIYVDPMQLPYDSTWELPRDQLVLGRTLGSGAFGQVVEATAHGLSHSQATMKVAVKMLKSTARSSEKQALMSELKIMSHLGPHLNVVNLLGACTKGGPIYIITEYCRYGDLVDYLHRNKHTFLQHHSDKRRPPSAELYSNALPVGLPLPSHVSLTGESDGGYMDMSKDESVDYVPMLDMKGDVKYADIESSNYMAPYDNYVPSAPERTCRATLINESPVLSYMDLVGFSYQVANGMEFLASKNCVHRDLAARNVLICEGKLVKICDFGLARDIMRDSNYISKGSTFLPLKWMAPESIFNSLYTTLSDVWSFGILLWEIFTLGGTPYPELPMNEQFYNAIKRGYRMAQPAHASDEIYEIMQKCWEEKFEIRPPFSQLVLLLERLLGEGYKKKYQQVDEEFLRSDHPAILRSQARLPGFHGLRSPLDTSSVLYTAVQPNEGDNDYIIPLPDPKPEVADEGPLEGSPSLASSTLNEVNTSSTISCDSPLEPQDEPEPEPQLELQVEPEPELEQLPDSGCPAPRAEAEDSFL

[4] = target: Tyrosine-protein kinase receptor TYRO3 (Homo sapiens, UniProt Q06418); type: functional;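 further: TYRO3 value obtained as one member of a kinome-wide profiling panel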
Aurora kinase B = Aurora kinase B (Homo sapiens, UniProt Q96GD4); type: functional
Chain of Aurora kinase B (Q96GD4 whole entry): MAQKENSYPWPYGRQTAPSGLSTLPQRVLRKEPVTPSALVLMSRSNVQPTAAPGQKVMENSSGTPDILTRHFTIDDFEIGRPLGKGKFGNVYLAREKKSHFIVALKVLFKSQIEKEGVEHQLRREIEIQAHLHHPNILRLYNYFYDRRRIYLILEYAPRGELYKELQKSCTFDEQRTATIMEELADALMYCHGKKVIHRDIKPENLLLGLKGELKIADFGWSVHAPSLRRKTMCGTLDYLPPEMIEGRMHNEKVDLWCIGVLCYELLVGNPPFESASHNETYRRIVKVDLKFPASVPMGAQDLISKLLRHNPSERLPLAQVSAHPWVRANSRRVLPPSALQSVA

[5] = target: BDNF/NT-3 growth factors receptor (Homo sapiens, UniProt Q16620); type: functional;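 further: NTRK2 measured as one member of a broad kinome-wide kinase profiling panel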
[6] = target: Receptor-type tyrosine-protein kinase FLT3 (Homo sapiens, UniProt P36888); type: functional;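 further: FLT3 was tested as one member of a kinome-wide kinase panel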
[7] = target: Ribosomal protein S6 kinase alpha-3 (Homo sapiens, UniProt P51812); type: functional;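 further: measured within a kinome-wide profiling panel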
[8] = target: Serine/threonine-protein kinase TBK1 (Homo sapiens, UniProt Q9UHD2); test: Navigating the Kinome. Panel member name: TBK1; type: functional
[9] = target: Rho-associated protein kinase 1 (Homo sapiens, UniProt Q13464); type: functional;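 further: measured within a broad kinome-wide panel profiling many kinases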
Chain of Rho-associated protein kinase 1 (Q13464 whole entry): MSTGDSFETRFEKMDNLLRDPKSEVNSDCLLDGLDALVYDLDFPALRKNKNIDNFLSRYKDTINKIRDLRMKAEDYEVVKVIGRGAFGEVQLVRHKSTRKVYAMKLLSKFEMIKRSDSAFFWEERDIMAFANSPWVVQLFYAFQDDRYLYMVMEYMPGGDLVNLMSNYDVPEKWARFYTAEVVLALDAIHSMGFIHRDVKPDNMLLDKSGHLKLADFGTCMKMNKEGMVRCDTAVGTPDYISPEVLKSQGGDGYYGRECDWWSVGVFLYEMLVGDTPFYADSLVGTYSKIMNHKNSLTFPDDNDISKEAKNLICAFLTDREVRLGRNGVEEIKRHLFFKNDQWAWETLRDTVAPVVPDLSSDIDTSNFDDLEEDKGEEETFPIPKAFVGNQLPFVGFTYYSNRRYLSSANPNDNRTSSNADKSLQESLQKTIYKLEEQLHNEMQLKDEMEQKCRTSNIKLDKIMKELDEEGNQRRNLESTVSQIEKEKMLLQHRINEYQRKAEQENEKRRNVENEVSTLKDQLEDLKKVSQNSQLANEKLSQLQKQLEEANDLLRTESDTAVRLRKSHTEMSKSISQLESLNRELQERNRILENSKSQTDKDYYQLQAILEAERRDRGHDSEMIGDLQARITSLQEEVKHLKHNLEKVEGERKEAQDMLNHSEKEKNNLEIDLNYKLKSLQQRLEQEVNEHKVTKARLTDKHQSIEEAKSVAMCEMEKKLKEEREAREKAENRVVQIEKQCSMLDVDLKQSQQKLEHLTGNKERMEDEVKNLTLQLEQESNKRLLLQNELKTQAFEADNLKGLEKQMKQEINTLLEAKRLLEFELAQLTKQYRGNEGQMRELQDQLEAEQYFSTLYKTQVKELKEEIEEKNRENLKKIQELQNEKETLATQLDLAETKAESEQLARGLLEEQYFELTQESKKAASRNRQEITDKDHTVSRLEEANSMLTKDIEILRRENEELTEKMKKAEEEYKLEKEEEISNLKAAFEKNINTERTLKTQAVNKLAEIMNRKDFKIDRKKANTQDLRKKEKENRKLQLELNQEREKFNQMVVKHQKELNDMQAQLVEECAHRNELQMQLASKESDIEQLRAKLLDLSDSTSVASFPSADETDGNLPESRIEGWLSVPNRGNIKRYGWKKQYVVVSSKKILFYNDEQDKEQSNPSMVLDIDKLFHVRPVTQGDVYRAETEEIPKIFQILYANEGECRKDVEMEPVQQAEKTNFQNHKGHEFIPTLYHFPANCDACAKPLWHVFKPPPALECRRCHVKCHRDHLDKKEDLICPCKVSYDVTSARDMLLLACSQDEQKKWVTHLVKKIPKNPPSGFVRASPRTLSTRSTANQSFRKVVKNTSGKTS

[10] = target: Tyrosine-protein kinase JAK3 (Homo sapiens, UniProt P52333); type: functional
Chain of Tyrosine-protein kinase JAK3 (P52333 whole entry): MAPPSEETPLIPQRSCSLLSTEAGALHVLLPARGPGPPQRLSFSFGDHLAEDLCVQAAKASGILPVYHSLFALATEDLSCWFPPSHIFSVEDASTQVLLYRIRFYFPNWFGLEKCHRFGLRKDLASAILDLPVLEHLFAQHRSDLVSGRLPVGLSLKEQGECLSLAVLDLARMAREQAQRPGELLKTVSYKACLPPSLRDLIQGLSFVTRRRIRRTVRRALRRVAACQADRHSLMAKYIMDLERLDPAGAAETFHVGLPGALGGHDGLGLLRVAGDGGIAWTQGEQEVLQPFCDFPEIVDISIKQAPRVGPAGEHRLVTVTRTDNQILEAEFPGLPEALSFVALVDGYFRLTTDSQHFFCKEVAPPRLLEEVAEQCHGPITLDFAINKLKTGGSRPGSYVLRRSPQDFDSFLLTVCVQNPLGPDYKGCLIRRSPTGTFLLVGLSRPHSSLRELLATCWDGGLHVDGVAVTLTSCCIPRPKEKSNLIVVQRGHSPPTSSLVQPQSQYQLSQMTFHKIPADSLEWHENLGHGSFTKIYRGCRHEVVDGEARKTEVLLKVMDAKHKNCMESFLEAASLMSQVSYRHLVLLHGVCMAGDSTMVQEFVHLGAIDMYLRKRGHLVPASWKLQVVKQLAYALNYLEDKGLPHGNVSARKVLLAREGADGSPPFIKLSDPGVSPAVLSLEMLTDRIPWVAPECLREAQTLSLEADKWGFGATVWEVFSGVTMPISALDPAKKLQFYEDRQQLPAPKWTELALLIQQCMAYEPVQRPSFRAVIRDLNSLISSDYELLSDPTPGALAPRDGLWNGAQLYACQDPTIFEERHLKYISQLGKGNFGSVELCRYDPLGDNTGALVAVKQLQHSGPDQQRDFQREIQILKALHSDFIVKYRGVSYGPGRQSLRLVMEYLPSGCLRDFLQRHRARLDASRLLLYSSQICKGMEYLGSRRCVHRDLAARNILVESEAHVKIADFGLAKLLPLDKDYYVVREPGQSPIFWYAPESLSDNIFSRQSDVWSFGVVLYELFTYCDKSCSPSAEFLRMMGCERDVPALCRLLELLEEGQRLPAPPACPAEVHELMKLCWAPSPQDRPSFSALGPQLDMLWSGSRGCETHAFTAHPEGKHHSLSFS

[11] = target: Cyclin-dependent kinase 5 (Homo sapiens, UniProt Q00535); type: functional;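 further: CDK5 measured as one member of a kinase profiling panel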
[12] = target: Serine/threonine-protein kinase TAO1 (Homo sapiens, UniProt Q7L7X3); type: functional
Chain of Serine/threonine-protein kinase TAO1 (Q7L7X3 whole entry): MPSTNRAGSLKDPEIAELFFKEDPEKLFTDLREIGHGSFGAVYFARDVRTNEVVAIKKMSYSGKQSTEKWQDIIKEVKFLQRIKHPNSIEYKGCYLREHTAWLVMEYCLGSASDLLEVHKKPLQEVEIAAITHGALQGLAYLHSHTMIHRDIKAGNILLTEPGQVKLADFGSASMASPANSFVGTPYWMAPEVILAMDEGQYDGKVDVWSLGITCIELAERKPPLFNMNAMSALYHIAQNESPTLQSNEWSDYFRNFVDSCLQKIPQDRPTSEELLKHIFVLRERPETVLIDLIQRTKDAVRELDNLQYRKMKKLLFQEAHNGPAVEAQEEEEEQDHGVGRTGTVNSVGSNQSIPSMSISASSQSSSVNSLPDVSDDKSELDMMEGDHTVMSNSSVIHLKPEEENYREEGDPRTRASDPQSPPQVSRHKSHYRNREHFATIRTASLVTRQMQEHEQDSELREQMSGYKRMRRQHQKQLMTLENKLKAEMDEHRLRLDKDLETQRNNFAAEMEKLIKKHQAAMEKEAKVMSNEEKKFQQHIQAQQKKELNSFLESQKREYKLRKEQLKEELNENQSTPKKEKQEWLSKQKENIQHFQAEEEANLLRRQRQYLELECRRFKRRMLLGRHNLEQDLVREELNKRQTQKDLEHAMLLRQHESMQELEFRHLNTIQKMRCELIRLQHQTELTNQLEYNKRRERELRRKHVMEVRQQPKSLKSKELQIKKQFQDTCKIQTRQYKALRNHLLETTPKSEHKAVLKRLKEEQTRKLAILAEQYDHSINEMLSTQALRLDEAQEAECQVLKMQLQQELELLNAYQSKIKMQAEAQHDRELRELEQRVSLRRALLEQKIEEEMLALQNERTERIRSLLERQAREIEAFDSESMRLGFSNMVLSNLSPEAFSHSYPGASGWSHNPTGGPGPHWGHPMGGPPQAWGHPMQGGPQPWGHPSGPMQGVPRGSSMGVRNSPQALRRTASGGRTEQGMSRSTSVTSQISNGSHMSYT

[13] = target: Vascular endothelial growth factor receptor 1 (Homo sapiens, UniProt P17948); type: functional;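 further: measured within a kinome-wide profiling panel, FLT1 as the panel member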
Caspase-3 = target: T3, Caspase-3 (Homo sapiens, UniProt P42574); type: functional;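 further: Dose-response selectivity test against caspase-3 for candidate inhibitors of sentrin-specific proteases (SENPs)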
T3 sequence (P42574 whole entry): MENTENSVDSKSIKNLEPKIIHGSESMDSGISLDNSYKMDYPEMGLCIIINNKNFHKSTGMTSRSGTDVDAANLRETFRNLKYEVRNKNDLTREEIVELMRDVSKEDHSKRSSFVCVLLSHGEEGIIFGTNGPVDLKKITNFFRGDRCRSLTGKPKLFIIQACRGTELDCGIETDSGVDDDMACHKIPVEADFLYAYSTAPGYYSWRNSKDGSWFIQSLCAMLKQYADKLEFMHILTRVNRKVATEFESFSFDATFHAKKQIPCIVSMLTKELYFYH

Genome polyprotein = Genome polyprotein (dengue virus type 2, UniProt P29990); test: flavivirus cap methylation enzyme inhibition – biochemical, confirmation dose response, primary screen (AID 588689); type: functional

SMILES: O=C1C=C(O)c2c(O)cc(O)c(O)c2C1=O
IC50 [1]: > 40.8 µM (inactive)

SMILES: CC1(C)C=C2C(=NN(c3ccccc3)C(N)=C2C#N)CO1
IC50 [2]: > 828 nM (active)

Ki [3]: > 2 µM (inactive)
Ki [4]: > 3.16 µM (inactive)
Ki (Aurora kinase B): 794 nM (active)
Ki [5]: > 3.98 µM (inactive)
Ki [6]: > 3.16 µM (inactive)
Ki [7]: > 3.98 µM (inactive)
Ki [8]: > 3.16 µM (inactive)
Ki [9]: > 3.98 µM (inactive)
Ki [10]: > 5.01 µM (inactive)
Ki [11]: 7.94 nM (active)
Ki [12]: > 6.31 µM (inactive)
Ki [13]: > 3.98 µM (inactive)
SMILES: Cc1ccc(-c2cc3nc(Br)cnc3[nH]2)cc1

SMILES: CC(=O)N(C1=C(Cl)C(=O)c2ccccc2C1=O)c1ccc(C(=O)O)cc1
IC50 (Caspase-3): 14.2 µM (active)
IC50 (Genome polyprotein): 5.89 µM (active)
